Data from article PMC5448077, “Development of an orally available inhibitor of CLK1 for skipping a mutated dystrophin exon in Duchenne muscular dystrophy” (Scientific Reports, 2017).

Tests used:
Assay in all cases: biochemical
[1] = biological target: T1, ABL (Homo sapiens, UniProt P00519)
T1 construct: gene ABL1
Summary of the method: (§1)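 Human kinases phosphorylating kinase-specific synthetic peptides, assayed by mobility shift (MSA) or IMAP fluorescence polarization, in 20 mM HEPES pH 7.5, 0.01% Triton X-100, 2 mM DTT with substrate/ATP-metal. Reactions ran 1 or 5 h at room temperature; activity = P/(P + S) from product and substrate peak heights.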

[2] = biological target: AKT1 (Homo sapiens, UniProt P31749)
Summary of the method: as §1

[3] = biological target: T2, ARG (Homo sapiens, UniProt P42684)
T2 construct: gene ABL2
Summary of the method: as §1

[4] = biological target: T3, CK1γ1 (Homo sapiens, UniProt Q9HCP0)
T3 construct: gene CSNK1G1
Summary of the method: as §1

[5] = biological target: CLK2 (Homo sapiens, UniProt P49760)
Summary of the method: as §1

[6] = biological target: DAPK1 (Homo sapiens, UniProt P53355)
Summary of the method: as §1

[7] = biological target: EPHA2 (Homo sapiens, UniProt P29317)
Summary of the method: as §1

[8] = biological target: T4, Erk2 (Homo sapiens, UniProt P28482)
T4 construct: gene MAPK1
T4 sequence (P28482 whole entry): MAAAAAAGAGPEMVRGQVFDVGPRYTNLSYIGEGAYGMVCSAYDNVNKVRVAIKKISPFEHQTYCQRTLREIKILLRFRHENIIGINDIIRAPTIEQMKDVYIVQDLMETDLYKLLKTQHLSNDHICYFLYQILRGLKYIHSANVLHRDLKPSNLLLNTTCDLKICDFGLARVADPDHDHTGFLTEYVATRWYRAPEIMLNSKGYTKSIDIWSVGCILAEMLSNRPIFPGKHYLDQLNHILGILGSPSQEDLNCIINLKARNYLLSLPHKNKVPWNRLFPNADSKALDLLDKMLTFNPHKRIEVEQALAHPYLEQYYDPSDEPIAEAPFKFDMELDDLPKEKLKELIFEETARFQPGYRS
Summary of the method: as §1

[9] = biological target: FLT1 (Homo sapiens, UniProt P17948)
Summary of the method: as §1

[10] = biological target: T5, GSK3α (Homo sapiens, UniProt P49840)
T5 construct: gene GSK3A
T5 sequence (P49840 whole entry): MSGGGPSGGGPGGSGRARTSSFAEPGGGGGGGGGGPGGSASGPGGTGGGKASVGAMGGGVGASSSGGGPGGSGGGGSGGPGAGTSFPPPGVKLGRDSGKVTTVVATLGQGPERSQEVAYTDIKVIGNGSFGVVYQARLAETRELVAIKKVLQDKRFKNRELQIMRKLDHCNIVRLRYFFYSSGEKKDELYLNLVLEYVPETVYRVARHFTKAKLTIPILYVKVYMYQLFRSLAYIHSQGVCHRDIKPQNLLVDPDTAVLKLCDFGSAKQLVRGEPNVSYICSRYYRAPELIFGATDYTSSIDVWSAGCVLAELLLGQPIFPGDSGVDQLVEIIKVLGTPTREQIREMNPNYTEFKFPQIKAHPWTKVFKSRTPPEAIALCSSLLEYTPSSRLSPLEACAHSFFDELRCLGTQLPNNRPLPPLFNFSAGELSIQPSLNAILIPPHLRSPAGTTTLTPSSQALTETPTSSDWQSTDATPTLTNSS
Summary of the method: as §1

[11] = biological target: HIPK3 (Homo sapiens, UniProt Q9H422)
Sequence of HIPK3 (Q9H422 whole entry): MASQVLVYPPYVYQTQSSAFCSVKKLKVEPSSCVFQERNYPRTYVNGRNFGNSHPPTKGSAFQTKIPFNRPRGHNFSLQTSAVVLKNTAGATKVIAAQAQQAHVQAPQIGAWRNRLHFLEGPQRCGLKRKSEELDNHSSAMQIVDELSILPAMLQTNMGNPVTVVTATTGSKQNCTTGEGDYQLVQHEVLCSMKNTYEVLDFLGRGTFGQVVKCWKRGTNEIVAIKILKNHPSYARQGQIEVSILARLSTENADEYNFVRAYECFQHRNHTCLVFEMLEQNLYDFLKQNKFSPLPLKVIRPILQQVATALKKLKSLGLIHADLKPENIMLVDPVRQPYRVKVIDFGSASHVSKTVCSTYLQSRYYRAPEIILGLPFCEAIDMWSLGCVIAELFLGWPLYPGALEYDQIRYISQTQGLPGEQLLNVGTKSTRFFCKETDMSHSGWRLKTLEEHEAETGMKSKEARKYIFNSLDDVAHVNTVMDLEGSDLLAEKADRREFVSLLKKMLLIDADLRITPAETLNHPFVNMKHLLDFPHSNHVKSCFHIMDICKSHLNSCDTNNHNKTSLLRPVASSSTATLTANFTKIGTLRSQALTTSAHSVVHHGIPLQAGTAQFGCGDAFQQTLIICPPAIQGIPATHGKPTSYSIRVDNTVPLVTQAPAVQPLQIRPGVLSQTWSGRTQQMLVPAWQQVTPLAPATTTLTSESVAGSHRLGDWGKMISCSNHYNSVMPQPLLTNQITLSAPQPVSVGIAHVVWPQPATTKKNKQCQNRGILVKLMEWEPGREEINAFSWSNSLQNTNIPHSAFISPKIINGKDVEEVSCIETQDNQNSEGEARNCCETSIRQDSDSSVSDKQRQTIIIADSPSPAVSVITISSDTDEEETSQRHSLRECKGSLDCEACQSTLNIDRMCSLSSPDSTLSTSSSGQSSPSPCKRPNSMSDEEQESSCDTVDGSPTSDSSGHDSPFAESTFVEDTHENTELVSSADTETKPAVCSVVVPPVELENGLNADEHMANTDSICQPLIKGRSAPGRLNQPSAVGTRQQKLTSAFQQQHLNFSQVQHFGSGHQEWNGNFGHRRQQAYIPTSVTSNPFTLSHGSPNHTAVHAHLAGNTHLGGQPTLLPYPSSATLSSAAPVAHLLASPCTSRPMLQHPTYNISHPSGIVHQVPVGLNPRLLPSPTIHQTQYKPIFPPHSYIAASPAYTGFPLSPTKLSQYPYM
Summary of the method: as §1

[12] = biological target: T6, IKKε (Homo sapiens, UniProt Q14164)
T6 construct: gene IKBKE
Summary of the method: as §1

[13] = biological target: ITK (Homo sapiens, UniProt Q08881)
Sequence of ITK (Q08881 whole entry): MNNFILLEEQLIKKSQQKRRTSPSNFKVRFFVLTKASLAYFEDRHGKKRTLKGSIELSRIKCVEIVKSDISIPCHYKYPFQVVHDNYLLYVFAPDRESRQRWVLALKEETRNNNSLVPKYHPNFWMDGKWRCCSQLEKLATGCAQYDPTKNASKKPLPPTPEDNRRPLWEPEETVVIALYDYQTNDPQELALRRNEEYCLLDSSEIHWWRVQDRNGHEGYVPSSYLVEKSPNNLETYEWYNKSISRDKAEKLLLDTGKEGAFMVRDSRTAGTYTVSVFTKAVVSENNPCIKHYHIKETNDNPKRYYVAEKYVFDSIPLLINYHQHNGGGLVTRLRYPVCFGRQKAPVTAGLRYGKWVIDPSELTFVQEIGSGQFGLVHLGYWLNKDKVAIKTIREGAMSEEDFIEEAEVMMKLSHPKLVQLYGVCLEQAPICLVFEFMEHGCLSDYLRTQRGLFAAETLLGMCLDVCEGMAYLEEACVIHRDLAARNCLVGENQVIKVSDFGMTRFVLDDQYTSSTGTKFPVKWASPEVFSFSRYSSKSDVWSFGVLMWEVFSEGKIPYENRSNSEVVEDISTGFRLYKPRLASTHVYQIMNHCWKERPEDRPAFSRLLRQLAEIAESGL
Summary of the method: as §1

[14] = biological target: T7, JNK3 (Homo sapiens, UniProt P53779)
T7 construct: gene MAPK10
T7 sequence (P53779 whole entry): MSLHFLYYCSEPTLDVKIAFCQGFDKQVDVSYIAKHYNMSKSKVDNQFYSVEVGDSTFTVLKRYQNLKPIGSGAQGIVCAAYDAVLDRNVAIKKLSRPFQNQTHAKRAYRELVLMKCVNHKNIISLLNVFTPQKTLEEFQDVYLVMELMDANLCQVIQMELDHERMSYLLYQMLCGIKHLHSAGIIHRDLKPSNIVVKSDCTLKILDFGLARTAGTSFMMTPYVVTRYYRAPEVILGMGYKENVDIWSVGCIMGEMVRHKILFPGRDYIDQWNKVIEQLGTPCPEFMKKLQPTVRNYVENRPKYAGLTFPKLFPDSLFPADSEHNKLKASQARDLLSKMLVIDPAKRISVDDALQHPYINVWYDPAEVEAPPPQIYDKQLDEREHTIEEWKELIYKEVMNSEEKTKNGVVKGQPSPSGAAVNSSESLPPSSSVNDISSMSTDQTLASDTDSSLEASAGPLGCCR
Summary of the method: as §1

[15] = biological target: MAPKAPK2 (Homo sapiens, UniProt P49137)
Summary of the method: as §1

[16] = biological target: MAPKAPK3 (Homo sapiens, UniProt Q16644)
Sequence of MAPKAPK3 (Q16644 whole entry): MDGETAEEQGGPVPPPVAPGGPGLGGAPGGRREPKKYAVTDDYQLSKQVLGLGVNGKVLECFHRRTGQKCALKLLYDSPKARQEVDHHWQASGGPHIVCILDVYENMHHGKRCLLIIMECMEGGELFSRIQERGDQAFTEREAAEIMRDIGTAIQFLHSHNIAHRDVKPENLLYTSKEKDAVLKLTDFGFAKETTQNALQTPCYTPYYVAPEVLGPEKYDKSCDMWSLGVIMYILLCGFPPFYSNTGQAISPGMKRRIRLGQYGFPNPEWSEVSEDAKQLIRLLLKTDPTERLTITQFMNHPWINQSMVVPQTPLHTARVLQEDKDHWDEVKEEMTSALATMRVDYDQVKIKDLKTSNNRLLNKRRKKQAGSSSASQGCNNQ
Summary of the method: as §1

[17] = biological target: MAPKAPK5 (Homo sapiens, UniProt Q8IW41)
Summary of the method: as §1

[18] = biological target: T8, MGC42105 (Homo sapiens, UniProt Q8IY84)
T8 construct: gene NIM1K
Summary of the method: as §1

[19] = biological target: T9, MSSK1 (Homo sapiens, UniProt Q9UPE1)
T9 construct: gene SRPK3
Summary of the method: as §1

[20] = biological target: NEK2 (Homo sapiens, UniProt P51955)
Summary of the method: as §1

[21] = biological target: NuaK1 (Homo sapiens, UniProt O60285)
Summary of the method: as §1

[22] = biological target: T10, PDHK4 (Homo sapiens, UniProt Q16654)
T10 construct: gene PDK4
Summary of the method: as §1

[23] = biological target: T11, PEK (Homo sapiens, UniProt Q9NZJ5)
T11 construct: gene EIF2AK3
Summary of the method: as §1

[24] = biological target: T12, PGK (Homo sapiens, UniProt Q13976)
T12 construct: gene PRKG1
T12 sequence (Q13976 whole entry): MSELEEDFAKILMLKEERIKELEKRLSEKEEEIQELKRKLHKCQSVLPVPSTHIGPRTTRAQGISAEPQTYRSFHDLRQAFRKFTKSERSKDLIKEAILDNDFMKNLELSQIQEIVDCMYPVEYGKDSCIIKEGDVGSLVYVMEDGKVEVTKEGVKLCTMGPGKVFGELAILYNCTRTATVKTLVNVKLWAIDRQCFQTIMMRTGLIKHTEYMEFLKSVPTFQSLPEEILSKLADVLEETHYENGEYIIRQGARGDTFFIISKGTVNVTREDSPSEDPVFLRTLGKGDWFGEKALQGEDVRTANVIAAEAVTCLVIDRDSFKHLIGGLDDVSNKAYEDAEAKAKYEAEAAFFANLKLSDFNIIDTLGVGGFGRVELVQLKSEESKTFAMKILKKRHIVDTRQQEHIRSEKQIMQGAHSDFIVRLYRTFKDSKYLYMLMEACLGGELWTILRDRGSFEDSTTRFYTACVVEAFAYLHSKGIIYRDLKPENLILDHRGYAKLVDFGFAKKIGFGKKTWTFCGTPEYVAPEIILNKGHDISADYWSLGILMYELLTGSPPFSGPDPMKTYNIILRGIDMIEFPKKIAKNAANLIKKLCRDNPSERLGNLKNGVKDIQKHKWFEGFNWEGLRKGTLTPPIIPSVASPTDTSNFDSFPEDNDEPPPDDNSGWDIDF
Summary of the method: as §1

[25] = biological target: PIM1 (Homo sapiens, UniProt P11309)
Summary of the method: as §1

[26] = biological target: T13, PKACβ (Homo sapiens, UniProt P22694)
T13 construct: gene PRKACB
Summary of the method: as §1

[27] = biological target: T14, PKCβ2 (Homo sapiens, UniProt P05771)
T14 construct: gene PRKCB; isoform beta2
Summary of the method: as §1

[28] = biological target: PLK2 (Homo sapiens, UniProt Q9NYY3)
Sequence of PLK2 (Q9NYY3 whole entry): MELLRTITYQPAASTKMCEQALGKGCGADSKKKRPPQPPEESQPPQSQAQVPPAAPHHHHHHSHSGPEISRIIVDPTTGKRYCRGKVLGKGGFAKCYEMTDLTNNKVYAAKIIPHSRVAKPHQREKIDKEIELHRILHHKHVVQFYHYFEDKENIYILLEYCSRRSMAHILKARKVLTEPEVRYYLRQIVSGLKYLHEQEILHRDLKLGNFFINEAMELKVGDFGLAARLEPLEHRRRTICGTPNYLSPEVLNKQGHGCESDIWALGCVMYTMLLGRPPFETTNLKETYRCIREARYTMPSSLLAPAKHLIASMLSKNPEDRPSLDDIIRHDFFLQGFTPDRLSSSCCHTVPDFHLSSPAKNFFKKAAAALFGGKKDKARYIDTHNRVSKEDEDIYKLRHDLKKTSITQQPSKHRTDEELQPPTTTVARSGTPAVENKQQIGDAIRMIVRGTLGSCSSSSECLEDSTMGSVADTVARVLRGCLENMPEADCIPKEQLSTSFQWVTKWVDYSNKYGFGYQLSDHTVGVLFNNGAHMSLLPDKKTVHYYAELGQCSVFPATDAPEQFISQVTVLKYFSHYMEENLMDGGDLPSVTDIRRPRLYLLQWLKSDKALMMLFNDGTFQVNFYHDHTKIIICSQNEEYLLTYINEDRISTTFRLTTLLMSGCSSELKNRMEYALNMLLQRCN
Summary of the method: as §1

[29] = biological target: PRKX (Homo sapiens, UniProt P51817)
Summary of the method: as §1

[30] = biological target: TXK (Homo sapiens, UniProt P42681)
Summary of the method: as §1

[31] = biological target: TYK2 (Homo sapiens, UniProt P29597)
Summary of the method: as §1

c1cc(-c2ccc3[nH]ncc3c2)ccn1 [TG693, 5-(4-pyridinyl)-1H-indazole]
inhibition at 1 µM [1]: -1.3%
inhibition at 1 µM [2]: -1.3%
inhibition at 1 µM [3]: 4.7%
inhibition at 1 µM [4]: 5%
inhibition at 1 µM [5]: 14.9%
inhibition at 1 µM [6]: -1.8%
inhibition at 1 µM [7]: 5.7%
inhibition at 1 µM [8]: -5.8%
inhibition at 1 µM [9]: 5.9%
inhibition at 1 µM [10]: 12.6%
inhibition at 1 µM [11]: -0.7%
inhibition at 1 µM [12]: 6.1%
inhibition at 1 µM [13]: 2.8%
inhibition at 1 µM [14]: -4.4%
inhibition at 1 µM [15]: -26%
inhibition at 1 µM [16]: -13.1%
inhibition at 1 µM [17]: 2.6%
inhibition at 1 µM [18]: -22.2%
inhibition at 1 µM [19]: -7.3%
inhibition at 1 µM [20]: -11.9%
inhibition at 1 µM [21]: 7.5%
inhibition at 1 µM [22]: 3.1%
inhibition at 1 µM [23]: 5%
inhibition at 1 µM [24]: 11%
inhibition at 1 µM [25]: 1.2%
inhibition at 1 µM [26]: 3.1%
inhibition at 1 µM [27]: -11.8%
inhibition at 1 µM [28]: 2.9%
inhibition at 1 µM [29]: 12.2%
inhibition at 1 µM [30]: -1%
inhibition at 1 µM [31]: 0.6%
